Assay results published in ChEMBL document CHEMBL5653615 (J Biol Chem, 2013).

Experiments:
[1] = molecular target: Mitogen-activated protein kinase kinase kinase 9 (Homo sapiens) (UniProt P80192); test: Inhibition of human MAP3K9 at 18.6 nM by HotSpot assay relative to control
[2] = molecular target: Serine/threonine-protein kinase PLK2 (Homo sapiens) (UniProt Q9NYY3); test: Inhibition of human PLK2 at 18.6 nM by HotSpot assay relative to control
[3] = molecular target: T1, Serine/threonine-protein kinase ULK2 (Homo sapiens) (UniProt Q8IYT8); test: Inhibition of human ULK2 at 18.6 nM by HotSpot assay relative to control
T1 sequence (whole entry): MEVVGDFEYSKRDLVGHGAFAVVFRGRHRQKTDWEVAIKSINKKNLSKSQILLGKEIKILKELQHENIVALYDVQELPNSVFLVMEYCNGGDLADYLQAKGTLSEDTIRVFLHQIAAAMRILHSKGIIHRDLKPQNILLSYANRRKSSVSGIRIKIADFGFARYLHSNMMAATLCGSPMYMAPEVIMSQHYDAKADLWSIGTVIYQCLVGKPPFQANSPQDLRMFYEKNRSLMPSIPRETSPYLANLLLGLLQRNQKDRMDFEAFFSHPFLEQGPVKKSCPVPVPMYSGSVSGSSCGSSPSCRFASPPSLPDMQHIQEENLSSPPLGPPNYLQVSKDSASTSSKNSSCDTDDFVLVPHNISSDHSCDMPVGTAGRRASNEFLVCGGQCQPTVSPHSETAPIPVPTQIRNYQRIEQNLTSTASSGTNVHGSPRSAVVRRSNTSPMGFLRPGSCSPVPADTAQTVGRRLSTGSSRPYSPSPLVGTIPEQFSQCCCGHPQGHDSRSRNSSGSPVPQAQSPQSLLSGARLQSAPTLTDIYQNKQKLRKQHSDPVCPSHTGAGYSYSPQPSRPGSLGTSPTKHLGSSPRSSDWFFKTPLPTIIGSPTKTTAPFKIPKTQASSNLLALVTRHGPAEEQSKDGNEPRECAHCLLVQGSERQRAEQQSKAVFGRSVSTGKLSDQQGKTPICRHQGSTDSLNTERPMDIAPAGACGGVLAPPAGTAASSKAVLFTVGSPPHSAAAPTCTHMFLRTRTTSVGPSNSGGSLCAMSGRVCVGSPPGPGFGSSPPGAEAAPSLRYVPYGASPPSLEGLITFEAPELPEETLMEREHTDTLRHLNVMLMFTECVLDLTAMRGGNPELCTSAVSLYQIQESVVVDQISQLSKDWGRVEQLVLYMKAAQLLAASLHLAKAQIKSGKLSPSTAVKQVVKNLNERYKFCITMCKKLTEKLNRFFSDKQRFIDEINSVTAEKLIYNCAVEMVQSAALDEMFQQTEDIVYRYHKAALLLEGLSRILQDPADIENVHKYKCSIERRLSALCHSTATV

[4] = molecular target: Myosin light chain kinase, smooth muscle (Homo sapiens) (UniProt Q15746); test: Inhibition of human MYLK at 18.6 nM by HotSpot assay relative to control
[5] = molecular target: T2, Dual serine/threonine and tyrosine protein kinase (Homo sapiens) (UniProt Q6XUX3); test: Inhibition of human RIPK5 at 18.6 nM by HotSpot assay relative to control
T2 sequence (whole entry): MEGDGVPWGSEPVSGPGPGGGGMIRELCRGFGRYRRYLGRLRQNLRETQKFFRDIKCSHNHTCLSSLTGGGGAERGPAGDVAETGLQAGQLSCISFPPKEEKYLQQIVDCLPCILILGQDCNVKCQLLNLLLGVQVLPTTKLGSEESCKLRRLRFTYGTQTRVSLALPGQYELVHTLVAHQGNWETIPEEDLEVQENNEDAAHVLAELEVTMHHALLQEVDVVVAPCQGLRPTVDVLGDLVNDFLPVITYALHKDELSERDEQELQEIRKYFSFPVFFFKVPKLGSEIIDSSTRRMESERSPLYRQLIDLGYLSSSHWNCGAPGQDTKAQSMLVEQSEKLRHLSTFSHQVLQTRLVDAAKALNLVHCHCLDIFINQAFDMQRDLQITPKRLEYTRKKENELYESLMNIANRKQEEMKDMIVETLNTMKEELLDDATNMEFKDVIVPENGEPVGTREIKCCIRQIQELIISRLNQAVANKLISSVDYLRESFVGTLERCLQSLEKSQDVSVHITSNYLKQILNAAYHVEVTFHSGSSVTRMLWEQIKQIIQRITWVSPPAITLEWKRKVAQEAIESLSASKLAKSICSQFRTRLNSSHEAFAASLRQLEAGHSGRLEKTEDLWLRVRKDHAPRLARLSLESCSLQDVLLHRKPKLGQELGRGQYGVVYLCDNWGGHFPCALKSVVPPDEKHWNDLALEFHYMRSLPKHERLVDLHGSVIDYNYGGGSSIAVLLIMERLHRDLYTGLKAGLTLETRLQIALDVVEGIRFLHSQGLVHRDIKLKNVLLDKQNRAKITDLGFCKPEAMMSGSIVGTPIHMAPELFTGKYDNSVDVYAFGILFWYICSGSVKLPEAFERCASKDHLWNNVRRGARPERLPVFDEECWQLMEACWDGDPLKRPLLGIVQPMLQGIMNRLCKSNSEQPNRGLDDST

[6] = molecular target: T3, Tyrosine-protein kinase Tec (Homo sapiens) (UniProt P42680); test: Inhibition of human TEC at 1.82 nM by HotSpot assay relative to control
T3 sequence (whole entry): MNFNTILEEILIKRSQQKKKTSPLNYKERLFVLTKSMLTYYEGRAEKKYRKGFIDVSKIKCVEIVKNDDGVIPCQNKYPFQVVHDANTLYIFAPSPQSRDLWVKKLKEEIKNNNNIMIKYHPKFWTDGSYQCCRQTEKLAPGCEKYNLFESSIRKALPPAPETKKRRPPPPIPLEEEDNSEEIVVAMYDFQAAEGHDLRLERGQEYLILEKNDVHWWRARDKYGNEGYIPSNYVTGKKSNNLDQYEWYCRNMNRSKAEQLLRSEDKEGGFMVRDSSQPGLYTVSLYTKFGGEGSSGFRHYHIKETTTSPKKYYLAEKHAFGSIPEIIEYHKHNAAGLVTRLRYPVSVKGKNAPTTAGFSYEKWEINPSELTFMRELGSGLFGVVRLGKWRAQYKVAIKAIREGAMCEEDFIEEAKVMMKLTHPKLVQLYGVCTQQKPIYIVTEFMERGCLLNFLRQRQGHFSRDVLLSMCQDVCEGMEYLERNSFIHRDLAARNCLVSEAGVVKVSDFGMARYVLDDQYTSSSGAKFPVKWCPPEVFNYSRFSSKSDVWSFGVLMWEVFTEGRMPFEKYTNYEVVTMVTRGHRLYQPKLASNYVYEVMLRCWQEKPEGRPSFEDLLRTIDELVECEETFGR

[7] = molecular target: Dual specificity protein kinase CLK2 (Homo sapiens) (UniProt P49760); conditions: dose 1.82 nM
Description: Inhibition of human CLK2 at 1.82 nM by HotSpot assay relative to control

[8] = molecular target: Insulin receptor-related protein (Homo sapiens) (UniProt P14616); test: Inhibition of human IRR at 1.82 nM by HotSpot assay relative to control

Chain of Myosin light chain kinase, smooth muscle (Homo sapiens) (Q15746 whole entry): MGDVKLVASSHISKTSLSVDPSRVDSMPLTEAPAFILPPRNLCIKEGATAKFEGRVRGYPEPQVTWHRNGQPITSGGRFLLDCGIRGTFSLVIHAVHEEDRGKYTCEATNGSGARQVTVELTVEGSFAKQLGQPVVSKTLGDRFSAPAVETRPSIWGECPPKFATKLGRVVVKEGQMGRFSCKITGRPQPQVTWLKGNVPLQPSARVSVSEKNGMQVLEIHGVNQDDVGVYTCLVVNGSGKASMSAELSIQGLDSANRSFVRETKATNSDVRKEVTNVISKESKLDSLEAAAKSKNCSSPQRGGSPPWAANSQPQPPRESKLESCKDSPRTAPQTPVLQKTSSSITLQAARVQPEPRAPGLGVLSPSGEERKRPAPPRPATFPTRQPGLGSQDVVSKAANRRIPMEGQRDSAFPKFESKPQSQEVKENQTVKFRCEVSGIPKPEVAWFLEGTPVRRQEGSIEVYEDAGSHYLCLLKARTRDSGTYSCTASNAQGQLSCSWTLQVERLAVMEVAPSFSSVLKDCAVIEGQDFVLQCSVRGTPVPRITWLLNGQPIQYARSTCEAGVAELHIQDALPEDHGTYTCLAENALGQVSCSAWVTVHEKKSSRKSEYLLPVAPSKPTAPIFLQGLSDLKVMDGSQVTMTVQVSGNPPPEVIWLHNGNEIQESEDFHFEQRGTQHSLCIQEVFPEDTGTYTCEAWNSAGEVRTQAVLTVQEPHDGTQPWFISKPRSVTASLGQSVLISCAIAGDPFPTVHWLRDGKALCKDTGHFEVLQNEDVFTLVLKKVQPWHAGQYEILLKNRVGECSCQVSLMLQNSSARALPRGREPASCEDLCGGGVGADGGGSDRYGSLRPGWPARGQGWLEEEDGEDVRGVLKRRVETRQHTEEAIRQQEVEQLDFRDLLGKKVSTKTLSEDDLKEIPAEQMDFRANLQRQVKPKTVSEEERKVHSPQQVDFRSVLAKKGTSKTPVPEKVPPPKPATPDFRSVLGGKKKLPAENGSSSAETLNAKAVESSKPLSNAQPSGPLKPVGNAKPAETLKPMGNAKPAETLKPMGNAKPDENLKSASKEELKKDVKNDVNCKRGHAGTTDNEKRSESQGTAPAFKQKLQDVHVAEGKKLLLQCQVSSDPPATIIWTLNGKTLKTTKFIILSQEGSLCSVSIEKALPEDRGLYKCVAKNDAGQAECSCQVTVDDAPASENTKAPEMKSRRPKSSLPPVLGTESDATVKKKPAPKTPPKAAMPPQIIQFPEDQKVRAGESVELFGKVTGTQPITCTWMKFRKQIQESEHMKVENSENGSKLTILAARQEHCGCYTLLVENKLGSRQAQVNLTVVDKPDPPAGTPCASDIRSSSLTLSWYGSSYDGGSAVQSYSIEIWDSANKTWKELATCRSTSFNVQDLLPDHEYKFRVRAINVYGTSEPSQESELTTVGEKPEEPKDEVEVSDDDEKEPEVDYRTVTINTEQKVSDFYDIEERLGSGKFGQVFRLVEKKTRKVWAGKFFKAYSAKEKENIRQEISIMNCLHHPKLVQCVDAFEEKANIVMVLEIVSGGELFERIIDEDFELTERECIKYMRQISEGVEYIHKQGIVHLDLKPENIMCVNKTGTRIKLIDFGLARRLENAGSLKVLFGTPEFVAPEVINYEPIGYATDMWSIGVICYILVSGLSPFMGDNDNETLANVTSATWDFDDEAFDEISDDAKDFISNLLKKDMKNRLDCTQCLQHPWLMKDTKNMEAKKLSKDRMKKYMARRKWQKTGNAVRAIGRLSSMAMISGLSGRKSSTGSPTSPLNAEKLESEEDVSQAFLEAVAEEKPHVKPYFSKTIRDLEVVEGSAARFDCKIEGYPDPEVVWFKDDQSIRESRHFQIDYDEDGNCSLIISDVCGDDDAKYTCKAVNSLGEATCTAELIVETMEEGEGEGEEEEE
Chain of Mitogen-activated protein kinase kinase kinase 9 (Homo sapiens) (P80192 whole entry, looked up): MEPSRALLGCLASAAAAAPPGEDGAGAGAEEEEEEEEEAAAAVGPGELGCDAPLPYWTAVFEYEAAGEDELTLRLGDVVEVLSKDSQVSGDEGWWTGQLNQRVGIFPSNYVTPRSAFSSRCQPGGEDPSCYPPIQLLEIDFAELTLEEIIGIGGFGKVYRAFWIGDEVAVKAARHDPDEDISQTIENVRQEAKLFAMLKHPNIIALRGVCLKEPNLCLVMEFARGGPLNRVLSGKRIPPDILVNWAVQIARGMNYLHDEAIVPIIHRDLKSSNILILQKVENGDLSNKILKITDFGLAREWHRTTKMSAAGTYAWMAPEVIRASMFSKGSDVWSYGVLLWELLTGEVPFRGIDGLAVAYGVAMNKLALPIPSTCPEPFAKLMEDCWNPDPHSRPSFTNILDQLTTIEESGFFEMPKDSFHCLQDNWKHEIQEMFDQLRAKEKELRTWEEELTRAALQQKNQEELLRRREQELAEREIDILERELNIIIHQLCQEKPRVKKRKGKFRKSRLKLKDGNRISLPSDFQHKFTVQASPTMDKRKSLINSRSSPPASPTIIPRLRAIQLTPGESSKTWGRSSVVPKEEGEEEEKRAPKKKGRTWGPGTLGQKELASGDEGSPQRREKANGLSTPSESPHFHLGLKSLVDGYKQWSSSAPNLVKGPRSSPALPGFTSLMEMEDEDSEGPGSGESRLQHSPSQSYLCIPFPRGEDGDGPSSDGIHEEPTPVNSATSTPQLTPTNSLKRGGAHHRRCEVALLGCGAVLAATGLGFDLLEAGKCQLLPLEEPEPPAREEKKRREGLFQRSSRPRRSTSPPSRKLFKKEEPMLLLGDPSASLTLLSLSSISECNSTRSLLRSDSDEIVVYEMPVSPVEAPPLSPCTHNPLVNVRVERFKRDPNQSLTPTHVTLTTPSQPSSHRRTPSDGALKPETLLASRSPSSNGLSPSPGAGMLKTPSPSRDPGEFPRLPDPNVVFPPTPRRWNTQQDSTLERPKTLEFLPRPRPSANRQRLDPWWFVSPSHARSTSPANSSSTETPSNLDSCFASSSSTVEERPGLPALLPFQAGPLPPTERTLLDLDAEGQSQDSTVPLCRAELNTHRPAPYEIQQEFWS
Chain of Dual specificity protein kinase CLK2 (Homo sapiens) (P49760 whole entry, looked up): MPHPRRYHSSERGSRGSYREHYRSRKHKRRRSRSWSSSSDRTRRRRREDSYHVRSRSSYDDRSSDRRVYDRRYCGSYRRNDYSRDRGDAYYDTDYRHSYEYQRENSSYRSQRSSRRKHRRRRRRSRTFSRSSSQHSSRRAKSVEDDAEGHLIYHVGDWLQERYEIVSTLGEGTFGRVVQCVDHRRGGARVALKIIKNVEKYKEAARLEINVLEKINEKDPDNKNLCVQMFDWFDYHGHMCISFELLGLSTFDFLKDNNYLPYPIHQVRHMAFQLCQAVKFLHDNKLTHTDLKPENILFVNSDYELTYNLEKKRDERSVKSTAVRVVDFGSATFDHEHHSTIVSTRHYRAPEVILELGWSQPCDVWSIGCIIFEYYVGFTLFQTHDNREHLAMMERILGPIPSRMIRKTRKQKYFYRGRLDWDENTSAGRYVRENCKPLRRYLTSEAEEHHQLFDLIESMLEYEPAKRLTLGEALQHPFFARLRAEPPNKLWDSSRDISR
Chain of Serine/threonine-protein kinase PLK2 (Homo sapiens) (Q9NYY3 whole entry, looked up): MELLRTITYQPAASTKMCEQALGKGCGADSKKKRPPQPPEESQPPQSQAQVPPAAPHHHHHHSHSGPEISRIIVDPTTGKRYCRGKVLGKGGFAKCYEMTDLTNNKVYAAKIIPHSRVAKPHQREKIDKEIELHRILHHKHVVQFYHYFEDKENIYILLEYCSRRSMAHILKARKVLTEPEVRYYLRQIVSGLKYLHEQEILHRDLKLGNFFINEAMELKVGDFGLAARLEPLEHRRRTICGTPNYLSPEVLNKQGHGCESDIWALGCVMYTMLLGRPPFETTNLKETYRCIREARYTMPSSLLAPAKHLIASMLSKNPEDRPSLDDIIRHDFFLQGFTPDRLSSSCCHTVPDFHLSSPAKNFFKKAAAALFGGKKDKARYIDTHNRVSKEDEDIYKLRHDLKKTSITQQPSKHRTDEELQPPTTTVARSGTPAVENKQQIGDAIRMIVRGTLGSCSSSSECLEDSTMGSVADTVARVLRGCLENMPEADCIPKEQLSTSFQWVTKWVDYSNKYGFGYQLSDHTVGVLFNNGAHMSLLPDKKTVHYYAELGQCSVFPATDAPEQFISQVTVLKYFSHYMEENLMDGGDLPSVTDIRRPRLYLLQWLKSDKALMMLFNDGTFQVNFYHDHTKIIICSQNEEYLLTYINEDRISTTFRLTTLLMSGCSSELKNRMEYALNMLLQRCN

| inhibition [1] | inhibition [2] | inhibition [3] | inhibition [4] | inhibition [5] | inhibition [6] | inhibition [7] | inhibition [8] | SMILES |
| --- | --- | --- | --- | --- | --- | --- | --- | --- |
| -2.33% | -0.58% | 2.12% | 2.54% | -0.63% |  |  |  | C[C@]1(O)C[C@@H](c2nc(-c3ccc4ccc(-c5ccccc5)nc4c3)c3c(N)nccn32)C1 |
|  |  |  |  |  | -3.36% | -1.7% | 33.5% | C[C@@]1(C(=O)Nc2ccc(F)nc2)CCCN1c1nc(Nc2cc(C3CC3)n[nH]2)c2cccn2n1 |
